# System: lung cancer cell line NCI-H82
# Experiment: Cell proliferation assay, NCI-H82 (CELL-TITER GLO)
# Assay type: cell-based
# Conditions: Homo sapiens, NCI-H82, 72 h, NCI-H82 cells, 72 h incubation, cell viability by CELL-TITER GLO, top concentration 1 μM; read-out: EC50, Inhibition of NCl-H82 Cell Proliferation
# Outline: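 NCI-H82 cells, 1,000 per well in RPMI1640, were treated after overnight plating with a 3-fold dilution series from 1 μM. Viability read by CellTiter-Glo luminescence after 72 h. EC50 derived from the curves.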
row,Structure (SMILES),EC50 [nM]
1,"C#Cc1nc(NC(=O)N[C@@H](C(N)=O)c2ccc(-c3cccc(C4(C#N)CC4)c3)cc2)cs1 [Compound A212, (R)-2-(3′-(1-Cyanocyclopropyl)-[1,1′-biphenyl]-4-yl)-2-(3-(2-ethynylthiazol-4-yl)ureido)acetamide]",≤ 200
2,"C#Cc1nc(NC(=O)N[C@@H](C(=O)NC)c2ccc(-c3cccc(C4(C#N)CC4)c3)cc2)cs1 [Compound A217, (R)-2-(3′-(1-Cyanocyclopropyl)-[1,1′-biphenyl]-4-yl)-2-(3-(2-ethynylthiazol-4-yl)ureido)-N-methylacetamide]",≤ 200
3,"C#Cc1nc(NC(=O)N[C@@H](C(=O)NC)c2ccc(-c3cccc(C4(O)CC4)c3)cc2)cs1 [Compound A218, (R)-2-(3-(2-Ethynylthiazol-4-yl)ureido)-2-(3′-(1-hydroxycyclopropyl)-[1,1′-biphenyl]-4-yl)-N-methylacetamide]",≤ 200
4,"C#Cc1nc(NC(=O)N[C@@H](C(=O)NC)c2ccc(-c3cccc(C(=O)CC)c3)cc2)cs1 [Compound A219, (R)-2-(3-(2-Ethynylthiazol-4-yl)ureido)-N-methyl-2-(3′-propionyl-[1,1′-biphenyl]-4-yl)acetamide]",≤ 200
5,"C#Cc1nc(NC(=O)N[C@@H](COC(N)=O)c2ccc(-c3cccc(C#N)c3)cc2)cs1 [Compound A221, (R)-2-(3′-Cyano-[1,1′-biphenyl]-4-yl)-2-(3-(2-ethynylthiazol-4-yl)ureido)ethyl carbamate]",≤ 200
6,C#Cc1nc(NC(=O)NC(COC(N)=O)c2ccc(-c3cccc(C4(C#N)CC4)c3)cc2)cs1 (centres unmarked) [Compound A222],≤ 200
7,"C#Cc1nc(NC(=O)N[C@@H](COC(N)=O)c2ccc(-c3cccc4nsnc34)cc2)cs1 [Compound A226, (R)-2-(4-(Benzo[c][1,2,5]thiadiazol-4-yl)phenyl)-2-(3-(2-ethynylthiazol-4-yl)-ureido)ethyl carbamate]",≤ 200
8,"C#Cc1nc(NC(=O)N[C@@H](COC(N)=O)c2ccc(-c3cccc4cccnc34)cc2)cs1 [Compound A227, (R)-2-(3-(2-Ethynylthiazol-4-yl)ureido)-2-(4-(quinolin-8-yl)phenyl)ethyl carbamate]",≤ 200
9,"C#Cc1nc(NC(=O)N[C@@H](COC(N)=O)c2ccc(-c3cccc4cnccc34)cc2)cs1 [Compound A229, (R)-2-(3-(2-Ethynylthiazol-4-yl)ureido)-2-(4-(isoquinolin-5-yl)phenyl)ethyl carbamate]",≤ 200
10,"C#Cc1nc(NC(=O)N[C@@H](COC(N)=O)c2ccc(-c3cccc4ncccc34)cc2)cs1 [Compound A230, (R)-2-(3-(2-Ethynylthiazol-4-yl)ureido)-2-(4-(quinolin-5-yl)phenyl)ethyl carbamate]",≤ 200
11,"C#Cc1nc(NC(=O)N[C@@H](COC(N)=O)c2ccc(-c3cccc4c3cnn4C)cc2)cs1 [Compound A231, (R)-2-(3-(2-Ethynylthiazol-4-yl)ureido)-2-(4-(1-methyl-1H-indazol-4-yl)phenyl)-ethyl carbamate]",≤ 200
12,"C#Cc1nc(NC(=O)N[C@@H](COC(N)=O)c2ccc(C3CCCc4c3cnn4C)cc2)cs1 (stereo partly drawn) [Compound A232, (2R)-2-(3-(2-Ethynylthiazol-4-yl)ureido)-2-(4-(1-methyl-4,5,6,7-tetrahydro-1H-indazol-4-yl)phenyl)ethyl carbamate]",≤ 200
13,"C#Cc1nc(NC(=O)N[C@@H](COC(N)=O)c2ccc(C3=CCCc4c3cnn4C)cc2)cs1 [Compound A233, (R)-2-(3-(2-Ethynylthiazol-4-yl)ureido)-2-(4-(1-methyl-6,7-dihydro-1H-indazol-4-yl)phenyl)ethyl carbamate]",≤ 200
14,"C#Cc1nc(NC(=O)N[C@@H](COC(N)=O)c2ccc(-c3cccc(N4CCCC4)n3)cc2)cs1 [Compound A234, (R)-2-(3-(2-Ethynylthiazol-4-yl)ureido)-2-(4-(6-(pyrrolidin-1-yl)pyridin-2-yl)-phenyl)ethyl carbamate]",≤ 200
15,"C#Cc1nc(NC(=O)N[C@@H](COC(N)=O)c2ccc(-c3ccnc(N4CCCC4)c3)cc2)cs1 [Compound A235, (R)-2-(3-(2-Ethynylthiazol-4-yl)ureido)-2-(4-(2-(pyrrolidin-1-yl)pyridin-4-yl)-phenyl)ethyl carbamate]",≤ 200
16,"C#Cc1nc(NC(=O)N[C@@H](COC(N)=O)c2ccc(-c3cccc(C4(C#N)CC4)c3)cn2)cs1 [Compound A236, (R)-2-(5-(3-(1-Cyanocyclopropyl)phenyl)pyridin-2-yl)-2-(3-(2-ethynylthiazol-4-yl)ureido)ethyl carbamate]",≤ 200

# Further lines, results first:
row,EC50 [nM],Structure (SMILES)
1,≤ 200,"C#Cc1nc(NC(=O)N[C@@H](C(N)=O)c2ccc(-c3cccc4ncsc34)cc2)cs1 [Compound A210, (R)-2-(4-(Benzo[d]thiazol-7-yl)phenyl)-2-(3-(2-ethynylthiazol-4-yl)ureido)-acetamide]"
2,≤ 200,"C#Cc1nc(NC(=O)N[C@H](C(N)=O)c2ccc(-c3cccc4ncsc34)cc2)cs1 [Compound A211, (S)-2-(4-(Benzo[d]thiazol-7-yl)phenyl)-2-(3-(2-ethynylthiazol-4-yl)ureido)-acetamide]"
3,≤ 200,"C#Cc1nc(NC(=O)N[C@@H](C(=O)NC)c2ccc(-c3cccc4nc[nH]c(=O)c34)cc2)cs1 [Compound A213, (R)-2-(3-(2-Ethynylthiazol-4-yl)ureido)-N-methyl-2-(4-(4-oxo-3,4-dihydro-quinazolin-5-yl)phenyl)acetamide]"
4,≤ 200,"C#Cc1nc(NC(=O)NC(C(=O)NC)c2ccc(-c3cccc4ncsc34)cc2)cs1 (centres unmarked) [Compound A214, 2-(4-(Benzo[d]thiazol-7-yl)phenyl)-2-(3-(2-ethynylthiazol-4-yl)ureido)-N-methylacetamide]"
5,≤ 200,"C#Cc1nc(NC(=O)N[C@@H](C(=O)NC)c2ccc(-c3cccc4ncsc34)cc2)cs1 [Compound A215, (R)-2-(4-(Benzo[d]thiazol-7-yl)phenyl)-2-(3-(2-ethynylthiazol-4-yl)ureido)-N-methylacetamide]"
6,≤ 200,"C#Cc1nc(NC(=O)N[C@H](C(=O)NC)c2ccc(-c3cccc4ncsc34)cc2)cs1 [Compound A216, (S)-2-(4-(Benzo[d]thiazol-7-yl)phenyl)-2-(3-(2-ethynylthiazol-4-yl)ureido)-N-methylacetamide]"
7,≤ 200,"C#Cc1nc(NC(=O)N[C@@H](C(=O)N(C)C)c2ccc(-c3cccc4ncsc34)cc2)cs1 [Compound A220, (R)-2-(4-(Benzo[d]thiazol-7-yl)phenyl)-2-(3-(2-ethynylthiazol-4-yl)ureido)-N,N-dimethylacetamide]"
8,≤ 200,"C#Cc1nc(NC(=O)N[C@@H](COC(N)=O)c2ccc(-c3cccc4ncsc34)cc2)cs1 [Compound A223, (R)-2-(4-(Benzo[d]thiazol-7-yl)phenyl)-2-(3-(2-ethynylthiazol-4-yl)ureido)ethyl carbamate]"
9,≤ 200,"C#Cc1nc(NC(=O)N[C@@H](COC(=O)NC)c2ccc(-c3cccc4ncsc34)cc2)cs1 [Compound A224, (R)-2-(4-(Benzo[d]thiazol-7-yl)phenyl)-2-(3-(2-ethynylthiazol-4-yl)ureido)ethyl methylcarbamate]"
10,≤ 200,"C#Cc1nc(NC(=O)N[C@@H](COC(N)=O)c2ccc(-c3cccc4nnsc34)cc2)cs1 [Compound A225, (R)-2-(4-(Benzo[d][1,2,3]thiadiazol-7-yl)phenyl)-2-(3-(2-ethynylthiazol-4-yl)-ureido)ethyl carbamate]"

# Source: patent US20240101546A1, “HETEROARYL-ACETYLENES, PHARMACEUTICAL COMPOSITIONS THEREOF, AND THEIR THERAPEUTIC APPLICATIONS” (Eubulus Biotherapeutics Inc., priority 2020, published 2024)
